This note sets out measurements from patent US12590095B2, “Crystalline forms of an orally available, selective kit and PDGFR kinase inhibitor” (Sandoz AG, priority 2019, dated 2026).

Each structure is given as a SMILES string.

Common to all, as to format: physicochemical
Data set [1] can be described thus: Gravimetric moisture sorption (GMS). As to conditions: for mass change during the sorption cycle: GMS, (25±0.1)° C.; for solid form by powder X-ray diffraction after the GMS experiment: after full sorption/desorption cycle 0-90% RH; for hygroscopicity: judged from GMS mass change. The method, then:
Moisture sorption isotherms were recorded along with other samples with an SPSx-1μ moisture sorption analyzer (ProUmid, Ulm). The measurement cycle was started at ambient relative humidity (RH) of 25% (Form A) or 40% (Form B and Form Hy1). Relative humidity was then decreased to 5% in 5% steps, followed by a further decrease to 3% and to 0%. Afterwards RH was increased from 0% to 90% in a sorption cycle and decreased to 0% in a desorption cycle in 5% steps. Finally, the RH was increased to a relative humidity of 25% (Form A) or 40% (Form B and Form Hy1) in 5% steps. The time per step was set to a minimum of 2 hours and a maximum of 6 hours. If an equilibrium condition with a constant mass of +0.01% within 1 hour was reached before the maximum time for all examined samples the sequential humidity step was applied before the maximum time of 6 hours. If no equilibrium was achieved the consecutive humidity step was applied after the maximum time of 6 hours. The temperature was (25±0.1)° C.

The nature of data set [2]: Thermogravimetric analysis (TGA). As to conditions: for TGA mass loss: 10 K/min. Here is the method: TGA was performed on a Mettler TGA/DSC 1 instrument. The samples (8.29 mg Form A, 8.11 mg Form B, 4.12 mg Form Hy1) were each weighed into a 100 microliter aluminum pan closed with an aluminum lid. The lid was automatically pierced at the beginning of the measurement. The samples were each heated from 25 to 250° C. at a rate of 10 K/min. Nitrogen (purge rate 50 mL/min) was used as purge gas.

Data set [3] is described as follows: Slurry experiments in aqueous isopropanol, form checked by PXRD. Particulars: for form found by PXRD after slurry: aqueous isopropanol 3:1, 0° C. The method, then:
Form A and Form B of avapritinib were each slurried in aqueous isopropanol [4 mL, 3:1 (volume:volume)] at 0° C., 20° C. and 40° C., respectively. Samples were taken after 1 and 5 days and investigated by powder-X-ray diffraction.

A short description of data set [4]: Storage stability under various stress conditions, form checked by PXRD. Particulars: 6 months. The source says: Avapritinib Form A, Form B and hydrate Form Hy1 were each subjected to the various stress conditions listed in Table 8 for 6 months and the samples were investigated by powder X-ray diffraction.

With `Cn1cc(-c2cc3c(N4CCN(c5ncc([C@@](C)(N)c6ccc(F)cc6)cn5)CC4)ncnn3c2)cn1` [Form A, (1S)-1-(4-fluorophenyl)-1-(2-[4-[6-(1-methyl-1H-pyrazol-4-yl)pyrrolo[2,1-f][1,2,4]triazin-4-yl]piperazin-1-yl]pyrimidin-5-yl)ethan-1-amine], in data set [1] (0-90% RH), the “mass change during the sorption cycle” value was “about 0.1 weight %”. Besides, in data set [1], the “solid form by powder X-ray diffraction after the GMS experiment” value (“solid form by powder X-ray diffraction” below) is on record as “Form A” and the hygroscopicity result is recorded as “non-hygroscopic”. Besides, the TGA mass loss result in data set [2] (up to about 190° C.) was “about 0.3 weight %”. In addition, the “stability in slurry experiments” value in data set [3] (all applied conditions (0, 20, 40° C.; 1 and 5 days)) is reported as “remained stable”. Besides, the “thermodynamic relationship of Form A and Form B” value in data set [3] (from slurry experiments and DSC at 1 K/min) is listed as “the stable form below its melting point”.

With `Cn1cc(-c2cc3c(N4CCN(c5ncc([C@@](C)(N)c6ccc(F)cc6)cn5)CC4)ncnn3c2)cn1` [Form B, (1S)-1-(4-fluorophenyl)-1-(2-[4-[6-(1-methyl-1H-pyrazol-4-yl)pyrrolo[2,1-f][1,2,4]triazin-4-yl]piperazin-1-yl]pyrimidin-5-yl)ethan-1-amine], the “mass change during the sorption cycle” value in data set [1] (0-90% RH) is recorded as “about 0.3 weight %”. In addition, in data set [1], the “solid form by powder X-ray diffraction” value was “Form B”. The hygroscopicity result in data set [1] is on record as “only slightly hygroscopic”. In data set [2] (up to about 180° C.), the TGA mass loss result was “about 0.3 weight-%”. The “conversion in slurry experiments” value in data set [3] (0° C.) is reported as “partially converted to Form A”; in data set [3] (20° C. and 40° C., already after 1 day) it was “fully converted to Form A”. The “form found by PXRD after slurry” value in data set [3] (1 day) is reported as “B + A”; in data set [3] (5 days), “A + B”.

As to `Cn1cc(-c2cc3c(N4CCN(c5ncc([C@@](C)(N)c6ccc(F)cc6)cn5)CC4)ncnn3c2)cn1` [Form Hy1], the “mass change during the sorption cycle” value in data set [1] (10-90% RH) is listed as “about 1.4 weight %”. Moreover, the “solid form by powder X-ray diffraction” value in data set [1] is recorded as “Form Hy1”. Besides, the hygroscopicity entry in data set [1] is reported as “only slightly hygroscopic”. This compound also registered a TGA mass loss in data set [2] (from beginning of measurement until about 110° C.) of 3.5 weight-%. For the same compound, the “water corresponding to TGA mass loss” value in data set [2] (until about 110° C.) is reported as “approximately 1 mol equivalent”. The “form found by PXRD after stress test” value in data set [4] (25° C./60% RH), in data set [4] (30° C./65% RH), in data set [4] (40° C./75% RH) and in data set [4] (RT/97% RH) was “Hy1” each time.
